# Data taken from patent US9169259B2, “Imidazopyridazine compounds” (Hoffmann-La Roche Inc., priority 2011, dated 2015).
# Counter-ions that a name gives are not always drawn.
# Target: recombinant human SYK360-635 (Homo sapiens (Human), UniProt P43405)
# Test: SYK kinase assay (33P ATP filtration, IC50 of SYK inhibition)
# Type: biochemical
# Conditions: truncated SYK aa 360-635 0.5 nM, ATP 20 μM, peptide 5 μM, 30° C. 15 min; read-out: ENZYME_FILTRATION_IC50
# Method: Determination of IC50 of Spleen Tyrosine Kinase (SYK) Inhibition:
# SYK kinase assay is a standard kinase assay adapted to a 96 well plate format. This assay is performed in 96-well format for IC50 determination with […] which represented 10 half log dilutions and a 40 μL reaction volume. The assay measures the incorporation of radiolabeled ^33P γATP into an N-terminally biotinylated peptide substrate, derived from naturally occurring phosphoacceptor consensus sequence (Biotin-11aa DY*E). Phosphorylated products were detected upon termination of reactions with EDTA and the addition of Streptavidin coated beads.
# Assay plates: 96-well MultiScreen 0.65 um filter plates (Millipore Cat. No.: MADVNOB10)
# final concentration: 50 mM HEPES pH7.5
# BSA: Bovine Serum Albumin Fraction V, fatty acid free (Roche Diagnostics GmbH, Cat. No. 9100221) diluted to a final concentration of 0.1%
# Assay Dilution Buffer (ADB): 50 mM HEPES, 0.1 mM EGTA, 0.1 mM Na Vanadate, 0.1 mM β-glycerophosphate, 10 mM MgCl2, 1 mM DTT, 0.1% BSA, pH 7.5
# Bead wash buffer: 10 g/L PBS (Phosphate buffered saline) with 2M NaCl+1% phosphoric acid.
# DMSO and the mixture was incubated for 10 min at RT.
# The kinase reaction was initiated by the addition of 10 μL 4× substrate cocktail containing the DYE peptide substrate [0 or 5 μM], ATP [20 μM] and ^33PγATP [2 μCi/r×n]. After incubation at 30° C. for 15 min, the reaction was terminated by the transfer of 25 μL of the reaction sample to a 96 well 0.65 μm Millipore MADVNOB membrane/plate containing 200 μL 5 mM EDTA and 20% Streptavidine coated beads in PBS.
# After the last wash membrane/plates were transferred to an adaptor plate, heat dried for 15 min at 60° C., and 50 μL scintillation cocktail was added to each well and 4 h later the amount of radioactivity was counted in a top counter.
row,SMILES,IC50 [nM]
1,"CC1CCCN1c1cccc(Nc2cc(-c3cccc(C(=O)NCCO)c3)nn3ccnc23)n1 (stereo not shown) [Example I-40, N-(2-Hydroxy-ethyl)-3-{8-[6-(2-methyl-pyrrolidin-1-yl)-pyridin-2-ylamino]-imidazo[1,2-b]pyridazin-6-yl}-benzamide]",42.5
2,"CC1CCCN1c1cccc(Nc2cc(-c3ccncc3)nn3ccnc23)n1 (stereo not shown) [Example I-81, [6-(2-Methyl-pyrrolidin-1-yl)-pyridin-2-yl]-(6-pyridin-4-yl-imidazo[1,2-b]pyridazin-8-yl)-amine]",188
3,"CC1CCCN1c1cccc(Nc2cc(-c3ccccc3C(F)(F)F)nn3ccnc23)n1 (stereo not shown) [Example I-48, [6-(2-Methyl-pyrrolidin-1-yl)-pyridin-2-yl]-[6-(2-trifluoromethyl-phenyl)-imidazo[1,2-b]pyridazin-8-yl]-amine hydrochloride]",410
4,"COc1cncc(-c2cc(Nc3cccc(N4CCCC4C)n3)c3nccn3n2)c1 (stereo not shown) [Example I-82, [6-(5-Methoxy-pyridin-3-yl)-imidazo[1,2-b]pyridazin-8-yl]-[6-(2-methyl-pyrrolidin-1-yl)-pyridin-2-yl]-amine]",59.9
5,"COc1cc(NC(=O)c2cccc(-c3cc(Nc4ccc(OC)c(OC)n4)c4nccn4n3)c2)ccc1C(=O)O [Example I-57, 4-{3-[8-(5,6-Dimethoxy-pyridin-2-ylamino)-imidazo[1,2-b]pyridazin-6-yl]-benzoylamino}-2-methoxy-benzoic acid]",1.55
6,"COCC1CCCN1c1cccc(Nc2cc(-c3ccccc3)nn3ccnc23)n1 (stereo not shown) [Example I-35, [6-(2-Methoxymethyl-pyrrolidin-1-yl)-pyridin-2-yl]-(6-phenyl-imidazo[1,2-b]pyridazin-8-yl)-amine hydrochloride]",834
7,"OCC1CCCN1c1cccc(Nc2cc(-c3ccccc3)nn3ccnc23)n1 (stereo not shown) [Example I-31, {1-[6-(6-Phenyl-imidazo[1,2-b]pyridazin-8-ylamino)-pyridin-2-yl]-pyrrolidin-2-yl}-methanol hydrochloride]",270
8,"CC1CCCN1c1cccc(Nc2cc(-c3ccc(C(=O)O)cc3)nn3ccnc23)n1 (stereo not shown) [Example I-15, 4-{8-[6-(2-Methyl-pyrrolidin-1-yl)-pyridin-2-ylamino]-imidazo[1,2-b]pyridazin-6-yl}-benzoic acid]",84.2
9,"CCN(CC)CCOc1cccc(-c2cc(Nc3cccc(N4CCCC4C)n3)c3nccn3n2)c1 (stereo not shown) [Example I-91, {6-[3-(2-Diethylamino-ethoxy)-phenyl]-imidazo[1,2-b]pyridazin-8-yl}-[6-(2-methyl-pyrrolidin-1-yl)-pyridin-2-yl]-amine]",261
10,"COCC1CCCN1c1cccc(Nc2cc(-c3cccc(C(=O)O)c3)nn3ccnc23)n1 (stereo not shown) [Example I-36, 3-{8-[6-(2-Methoxymethyl-pyrrolidin-1-yl)-pyridin-2-ylamino]-imidazo[1,2-b]pyridazin-6-yl}-benzoic acid]",345
11,"CC(CO)NC(=O)c1cccc(-c2cc(Nc3cccc(N4CCCC4C)n3)c3nccn3n2)c1 (stereo not shown) [Example I-41, N-(2-Hydroxy-1-methyl-ethyl)-3-{8-[6-(2-methyl-pyrrolidin-1-yl)-pyridin-2-ylamino]-imidazo[1,2-b]pyridazin-6-yl}-benzamide]",130
12,"CC1CCCN1c1cccc(Nc2cc(-c3ccc4[nH]ncc4c3)nn3ccnc23)n1 (stereo not shown) [Example I-37, [6-(1H-Indazol-5-yl)-imidazo[1,2-b]pyridazin-8-yl]-[6-(2-methyl-pyrrolidin-1-yl)-pyridin-2-yl]-amine]",98.1
13,"O=C(O)c1cccc(-c2cc(Nc3cccc(N4CCCC4CO)n3)c3nccn3n2)c1 (stereo not shown) [Example I-20, 3-{8-[6-(2-Hydroxymethyl-pyrrolidin-1-yl)-pyridin-2-ylamino]-imidazo[1,2-b]pyridazin-6-yl}-benzoic acid]",258
14,"FC(F)(F)c1cccc(Nc2cc(-c3ccccc3)nn3ccnc23)n1 [Example I-1, (6-Phenyl-imidazo[1,2-b]pyridazin-8-yl)-(6-trifluoromethyl-pyridin-2-yl)-amine]",> 10000
15,"CC(C)(C)C1CCN(c2cccc(Nc3cc(-c4cccc(C(N)=O)c4)nn4ccnc34)n2)C1 (stereo not shown) [Example I-67, 3-{8-[6-(3-tert-Butyl-pyrrolidin-1-yl)-pyridin-2-ylamino]-imidazo[1,2-b]pyridazin-6-yl}-benzamide]",280
16,"CC1CCCN1c1cccc(Nc2cc(-c3cccc(C(=O)Nc4ccc(C(=O)O)cc4)c3)nn3ccnc23)n1 (stereo not shown) [Example I-10, 4-(3-{8-[6-(2-Methyl-pyrrolidin-1-yl)-pyridin-2-ylamino]-imidazo[1,2-b]pyridazin-6-yl}-benzoylamino)-benzoic acid]",1.65
17,"COc1ccc(Nc2cc(-c3ccc(C(=O)NCCc4ccn(C)c(=O)c4)cc3)nn3ccnc23)nc1OC [Example I-33, 4-[8-(5,6-Dimethoxy-pyridin-2-ylamino)-imidazo[1,2-b]pyridazin-6-yl]-N-[2-(1-methyl-2-oxo-1,2-dihydro-pyridin-4-yl)-ethyl]-benzamide]",79
18,"CC1CCCN1c1cccc(Nc2cc(-c3ccc(C(=O)NCCc4ccncc4)cc3)nn3ccnc23)n1 (stereo not shown) [Example I-16, 4-{8-[6-(2-Methyl-pyrrolidin-1-yl)-pyridin-2-ylamino]-imidazo[1,2-b]pyridazin-6-yl}-N-(2-pyridin-4-yl-ethyl)-benzamide]",87.6
19,"COC(=O)c1ccc(-c2cc(Nc3cccc(N4CCCC4C)n3)c3nccn3n2)cc1 (stereo not shown) [Example I-14, 4-{8-[6-(2-Methyl-pyrrolidin-1-yl)-pyridin-2-ylamino]-imidazo[1,2-b]pyridazin-6-yl}-benzoic acid methyl ester]",369
20,"CC1CCCN1c1cccc(Nc2cc(-c3cccc(OCCN4CCCCC4)c3)nn3ccnc23)n1 (stereo not shown) [Example I-87, [6-(2-Methyl-pyrrolidin-1-yl)-pyridin-2-yl]-{6-[3-(2-piperidin-1-yl-ethoxy)-phenyl]-imidazo[1,2-b]pyridazin-8-yl}-amine]",210
21,"COc1ccc(Nc2cc(-c3cccc(C(=O)Nc4ccc5c(c4)CNC5=O)c3)nn3ccnc23)nc1OC [Example I-56, 3-[8-(5,6-Dimethoxy-pyridin-2-ylamino)-imidazo[1,2-b]pyridazin-6-yl]-N-(1-oxo-2,3-dihydro-1H-isoindol-5-yl)-benzamide]",593
22,"COC(=O)c1cccc(-c2cc(Nc3cccc(N4CCCC4C)n3)c3nccn3n2)c1 (stereo not shown) [Example I-8, 3-{8-[6-(2-Methyl-pyrrolidin-1-yl)-pyridin-2-ylamino]-imidazo[1,2-b]pyridazin-6-yl}-benzoic acid methyl ester]",478
23,"O=C(O)c1cccc(-c2cc(Nc3cccc(N4CC5CC5C4)n3)c3nccn3n2)c1 (stereo not shown) [Example I-23, 3-{8-[6-(3-Aza-bicyclo[3.1.0]hex-3-yl)-pyridin-2-ylamino]-imidazo[1,2-b]pyridazin-6-yl}-benzoic acid]",442
24,"COc1ccc(Nc2cc(-c3ccc(C(=O)NCCc4cc[nH]c(=O)c4)cc3)nn3ccnc23)nc1OC [Example I-28, 4-[8-(5,6-Dimethoxy-pyridin-2-ylamino)-imidazo[1,2-b]pyridazin-6-yl]-N-[2-(2-oxo-1,2-dihydro-pyridin-4-yl)-ethyl]-benzamide]",187
25,"COC(=O)c1cccc(-c2cc(Nc3cccc(N4CCC(C(C)(C)C)C4)n3)c3nccn3n2)c1 (stereo not shown) [Example I-65, 3-{8-[6-(3-tert-Butyl-pyrrolidin-1-yl)-pyridin-2-ylamino]-imidazo[1,2-b]pyridazin-6-yl}-benzoic acid methyl ester]",1260
